From patent US9573975B2, “Melanoma antigen peptide and uses thereof” (INSERM (INSTITUT NATIONAL DE LA SANTE ET DE LA RECHERCHE …, priority 2012, dated 2017)

System: MELOE-1 specific CD4 T cell clones
Assay: Recognition of autologous DC loaded with antigen by CD4 T cell clones (TNF-α)
Type: cell-based, human
Experimental: FIG. 4: Class II epitopes are naturally processed from MELOE-1 whole antigen. Autologous DC, were loaded (before or after fixation) with MELOE-12-46 (1 μM) or, as a negative control, with Melan-A16-40L peptide (1 μM), and matured. T cell clones were then stimulated with DC at a ratio 1:1, during 5 h in presence of Brefeldin A, then stained with APC-conjugated anti-CD3 mAb, fixed with 4% paraformaldehyde, labeled with PE-conjugated anti-TNF-α mAb and analyzed by flow cytometry. Histograms illustrated the % of TNF-α producing cells among CD3 positive T cells.
Dendritic Cells Generation and Loading Monocytes were purified from PBMC of healthy donors by a CD14-enrichment kit, according the recommendations of the supplier (Stem Cell, France). Immature dendritic cells (iDC) were generated by culturing monocytes in RPMI supplemented with 20 mg/mL of human albumin, 1000 IU/mL of GM-CSF and 200 IU/mL of IL-4 for 5 days. Then, iDC were pulsed with the whole MELOE-1 (1 μM) protein or the modified Melan-A16-40 A27L as negative control (1 μM) and matured with 20 ng/mL of TNF-α and 50 μg/mL of PolyI:C for 4 hours at 37° C. Finally they were fixed for 1 minute with PBS/0.015% glutaraldehyde. Alternatively, iDC were first matured, fixed and then pulsed with antigens at the same concentration. […]

Sequence: MSCVGYPDEATSREQFLPSEGAACPPWHPSERISSTLNDECWPASL [MELOE-1]
- recognition by specific CD4 T cell clones of loaded autologous DC (DC loaded after DC fixation): only a weak recognition
- reactivity of the four CD4 T cell clones against loaded autologous DC (iDC loaded with 1 μM in serum-free medium, matured, then fixed): reactive
